Data: the supplement of paper PMC10307832

Each cell line was assayed with COc1nc(N)nc2c1ncn2[C@@H]1O[C@H](CO)[C@@H](O)[C@@H]1O [Nelarabine] + CC1(C)CCC(c2ccc(Cl)cc2)=C(CN2CCN(c3ccc(C(=O)NS(=O)(=O)c4ccc(N[C@H](CCN5CCOCC5)CSc5ccccc5)c(S(=O)(=O)C(F)(F)F)c4)cc3)CC2)C1 [Navitoclax] (partner 0.5 µM) (assay: relative viability (nuclei count vs DMSO), 5 days (fraction); higher = more cells survive). Conditions: first compound 0.01 µM.
Procedure, shortened: (§1)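 After 5 days of treatment, lung cancer cells in 1536-well plates were fixed and stained in a single step (final 0.05% Triton X-100, 1% formaldehyde, 1 ug/ml Hoechst) and their nuclei counted on 4× images. Treatment had been applied by pin tool the day after seeding as one drug alone or as a fixed anchor-drug dose with five library-drug doses (not always all listed) in √10 steps. Relative viability is the nuclei count of treated wells divided by that of vehicle wells, and values are medians of duplicate plates.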

Q: With 201T as the cell line, how does the relative viability read?
A: 1.15

Q: For A549, which relative viability is on record?
A: 1.56

Q: For A-427, which relative viability is on record?
A: 1.05

Q: Which relative viability does the source give for BEN here?
A: 0.0794

Q: With CAL-12T as the cell line, how does the relative viability read?
A: 1.37

Q: Which relative viability does the source give for COR-L23 here?
A: 1.4

Q: With COR-L 105 as the cell line, how does the relative viability read?
A: 0.936

Q: For Calu-6, which relative viability is on record?
A: 1.17

Q: Which relative viability does the source give for ChaGo-K-1 here?
A: 1.03

Q: How did the relative viability turn out when EBC-1 was run?
A: 0.403

Q: For EKVX, which relative viability is on record?
A: 1.14

Q: For EPLC-272H, which relative viability is on record?
A: 1.33

Q: Which relative viability does the source give for H3255 here?
A: 0.59

Q: How did the relative viability turn out when HARA was run?
A: 1.17

Q: Which relative viability does the source give for HCC-15 here?
A: 0.794

Q: How did the relative viability turn out when HCC-44 was run?
A: 1.27

Q: How did the relative viability turn out when HCC-78 was run?
A: 0.96

Q: HCC-366 was tested. Which relative viability did it give?
A: 1.55

Q: How did the relative viability turn out when HCC-827 was run?
A: 1.02

Q: How did the relative viability turn out when HOP-62 was run?
A: 1.25

Q: With IA-LM as the cell line, how does the relative viability read?
A: 1

Q: For LC-2-ad, which relative viability is on record?
A: 0.619

Q: For LCLC-97TM1, which relative viability is on record?
A: 0.428

Q: LK-2 was tested. Which relative viability did it give?
A: 0.975

Q: For LOU-NH91, which relative viability is on record?
A: 0.786

Q: LU99A was tested. Which relative viability did it give?
A: 0.918

Q: LXF-289 was tested. Which relative viability did it give?
A: 1.12

Q: For NCI-H727, which relative viability is on record?
A: 0.496

Q: Which relative viability does the source give for NCI-H1299 here?
A: 1.09

Q: With NCI-H1703 as the cell line, how does the relative viability read?
A: 1.28

Q: Which relative viability does the source give for NCI-H1792 here?
A: 0.518

Same assay, conditions: first compound 0.03162 µM

Q: How did the relative viability turn out when 201T was run?
A: 1.18

Q: A549 was tested. Which relative viability did it give?
A: 1.29

Q: With A-427 as the cell line, how does the relative viability read?
A: 1.02

Q: For BEN, which relative viability is on record?
A: 0.0676

Q: CAL-12T was tested. Which relative viability did it give?
A: 1.11

Q: COR-L23 was tested. Which relative viability did it give?
A: 1.14

Q: Which relative viability does the source give for COR-L 105 here?
A: 0.956

Q: With ChaGo-K-1 as the cell line, how does the relative viability read?
A: 1.02

Q: Which relative viability does the source give for EBC-1 here?
A: 0.261

Q: With EKVX as the cell line, how does the relative viability read?
A: 0.897

Q: For EPLC-272H, which relative viability is on record?
A: 1.35

Q: With H3255 as the cell line, how does the relative viability read?
A: 0.486

Q: For HARA, which relative viability is on record?
A: 1.08

Q: For HCC-15, which relative viability is on record?
A: 0.633

Q: With HCC-44 as the cell line, how does the relative viability read?
A: 1.09

Q: For HCC-78, which relative viability is on record?
A: 0.925

Q: HCC-366 was tested. Which relative viability did it give?
A: 1.03

Q: HCC-827 was tested. Which relative viability did it give?
A: 0.886

Q: How did the relative viability turn out when HOP-62 was run?
A: 1

Q: How did the relative viability turn out when IA-LM was run?
A: 0.626

Q: Which relative viability does the source give for LC-2-ad here?
A: 0.384

Q: LCLC-97TM1 was tested. Which relative viability did it give?
A: 0.202

Q: How did the relative viability turn out when LOU-NH91 was run?
A: 0.588

Q: With LU99A as the cell line, how does the relative viability read?
A: 0.821

Q: Which relative viability does the source give for LXF-289 here?
A: 0.882

Q: With NCI-H727 as the cell line, how does the relative viability read?
A: 0.384

Q: NCI-H1299 was tested. Which relative viability did it give?
A: 1.06

Q: Which relative viability does the source give for NCI-H1703 here?
A: 0.936

Same assay, conditions: first compound 0.1 µM

Q: How did the relative viability turn out when 201T was run?
A: 1.18

Q: A549 was tested. Which relative viability did it give?
A: 1.24

Q: How did the relative viability turn out when A-427 was run?
A: 0.916

Q: For BEN, which relative viability is on record?
A: 0.187

Q: How did the relative viability turn out when CAL-12T was run?
A: 1.31

Q: With COR-L23 as the cell line, how does the relative viability read?
A: 1.09

Q: COR-L 105 was tested. Which relative viability did it give?
A: 0.733

Q: For Calu-6, which relative viability is on record?
A: 0.892

Q: ChaGo-K-1 was tested. Which relative viability did it give?
A: 1.48

Q: With EBC-1 as the cell line, how does the relative viability read?
A: 0.375

Q: How did the relative viability turn out when EKVX was run?
A: 0.856

Q: With EPLC-272H as the cell line, how does the relative viability read?
A: 1.43

Q: With H3255 as the cell line, how does the relative viability read?
A: 0.625

Q: For HARA, which relative viability is on record?
A: 1.07

Q: With HCC-15 as the cell line, how does the relative viability read?
A: 0.686

Q: HCC-44 was tested. Which relative viability did it give?
A: 0.985

Q: Which relative viability does the source give for HCC-366 here?
A: 1.22

Q: With HCC-827 as the cell line, how does the relative viability read?
A: 0.91

Q: With HOP-62 as the cell line, how does the relative viability read?
A: 1.06

Q: How did the relative viability turn out when IA-LM was run?
A: 0.774

Q: How did the relative viability turn out when LC-2-ad was run?
A: 0.519

Q: With LCLC-97TM1 as the cell line, how does the relative viability read?
A: 0.458

Q: How did the relative viability turn out when LK-2 was run?
A: 1.09

Q: LOU-NH91 was tested. Which relative viability did it give?
A: 0.616

Q: Which relative viability does the source give for LU99A here?
A: 0.845

Q: How did the relative viability turn out when LXF-289 was run?
A: 0.98

Q: Which relative viability does the source give for NCI-H727 here?
A: 0.376

Q: NCI-H1299 was tested. Which relative viability did it give?
A: 1.1

Q: How did the relative viability turn out when NCI-H1703 was run?
A: 1.24

Q: With NCI-H1792 as the cell line, how does the relative viability read?
A: 0.931

Same assay, conditions: first compound 0.3162 µM

Q: With 201T as the cell line, how does the relative viability read?
A: 1.15

Q: With A549 as the cell line, how does the relative viability read?
A: 1.17

Q: How did the relative viability turn out when A-427 was run?
A: 0.897

Q: For BEN, which relative viability is on record?
A: 0.0641

Q: For CAL-12T, which relative viability is on record?
A: 1.41

Q: For COR-L23, which relative viability is on record?
A: 1.04

Q: For COR-L 105, which relative viability is on record?
A: 0.819

Q: Calu-6 was tested. Which relative viability did it give?
A: 0.851

Q: How did the relative viability turn out when ChaGo-K-1 was run?
A: 0.936

Q: Which relative viability does the source give for EBC-1 here?
A: 0.432

Q: EKVX was tested. Which relative viability did it give?
A: 1.08

Q: For EPLC-272H, which relative viability is on record?
A: 0.954

Q: Which relative viability does the source give for H3255 here?
A: 0.6

Q: Which relative viability does the source give for HARA here?
A: 1.22

Q: For HCC-15, which relative viability is on record?
A: 0.724

Q: How did the relative viability turn out when HCC-44 was run?
A: 1.05

Q: How did the relative viability turn out when HCC-78 was run?
A: 0.955

Q: HCC-366 was tested. Which relative viability did it give?
A: 1.2

Q: Which relative viability does the source give for HCC-827 here?
A: 0.797

Q: How did the relative viability turn out when HOP-62 was run?
A: 1.08

Q: IA-LM was tested. Which relative viability did it give?
A: 0.754

Q: How did the relative viability turn out when LC-2-ad was run?
A: 0.434

Q: For LCLC-97TM1, which relative viability is on record?
A: 0.478

Q: LK-2 was tested. Which relative viability did it give?
A: 0.935

Q: With LOU-NH91 as the cell line, how does the relative viability read?
A: 0.632

Q: LU99A was tested. Which relative viability did it give?
A: 0.765

Q: Which relative viability does the source give for LXF-289 here?
A: 1

Q: Which relative viability does the source give for NCI-H727 here?
A: 0.424

Q: NCI-H1299 was tested. Which relative viability did it give?
A: 1.07

Q: NCI-H1703 was tested. Which relative viability did it give?
A: 1.18

Q: Which relative viability does the source give for NCI-H1792 here?
A: 0.685

Same assay, conditions: first compound 1 µM

Q: Which relative viability does the source give for 201T here?
A: 1.16

Q: A549 was tested. Which relative viability did it give?
A: 1.18

Q: A-427 was tested. Which relative viability did it give?
A: 0.912

Q: BEN was tested. Which relative viability did it give?
A: 0.0472

Q: CAL-12T was tested. Which relative viability did it give?
A: 1.14

Q: With COR-L23 as the cell line, how does the relative viability read?
A: 0.977

Q: COR-L 105 was tested. Which relative viability did it give?
A: 0.795

Q: For Calu-6, which relative viability is on record?
A: 0.909

Q: ChaGo-K-1 was tested. Which relative viability did it give?
A: 1.07

Q: How did the relative viability turn out when EBC-1 was run?
A: 0.381

Q: How did the relative viability turn out when EKVX was run?
A: 0.982

Q: EPLC-272H was tested. Which relative viability did it give?
A: 1.08

Q: How did the relative viability turn out when H3255 was run?
A: 0.622

Q: HARA was tested. Which relative viability did it give?
A: 1.06

Q: How did the relative viability turn out when HCC-15 was run?
A: 0.705

Q: HCC-44 was tested. Which relative viability did it give?
A: 0.966

Q: How did the relative viability turn out when HCC-78 was run?
A: 0.901

Q: Which relative viability does the source give for HCC-366 here?
A: 1

Q: Which relative viability does the source give for HCC-827 here?
A: 0.705

Q: For HOP-62, which relative viability is on record?
A: 1.11

Q: Which relative viability does the source give for IA-LM here?
A: 0.807

Q: How did the relative viability turn out when LC-2-ad was run?
A: 0.452

Q: How did the relative viability turn out when LCLC-97TM1 was run?
A: 0.351

Q: With LK-2 as the cell line, how does the relative viability read?
A: 0.729

Q: LOU-NH91 was tested. Which relative viability did it give?
A: 0.69

Q: Which relative viability does the source give for LU99A here?
A: 0.758

Q: LXF-289 was tested. Which relative viability did it give?
A: 0.908

Q: For NCI-H727, which relative viability is on record?
A: 0.377

Q: Which relative viability does the source give for NCI-H1299 here?
A: 1.08

Q: With NCI-H1703 as the cell line, how does the relative viability read?
A: 1.18

Q: For NCI-H1792, which relative viability is on record?
A: 0.396

The cell lines below were run with COc1nc(N)nc2c1ncn2[C@@H]1O[C@H](CO)[C@@H](O)[C@@H]1O [Nelarabine] + Nc1nc2[nH]cc(CCc3ccc(C(=O)N[C@@H](CCC(=O)O)C(=O)O)cc3)c2c(=O)[nH]1 [Pemetrexed] (partner 0.2 µM) in the same assay as above. Conditions: first compound 0.01 µM.
Procedure, shortened: as §1

Q: With 201T as the cell line, how does the relative viability read?
A: 0.378

Q: Which relative viability does the source give for A-427 here?
A: 1.04

Q: BEN was tested. Which relative viability did it give?
A: 0.788
